# Laboratory results published in patent publication US6573274B1, “Sulfonamide compounds and uses thereof as medicines” (Fujisawa Pharmaceutical Co. Ltd., priority 1998, dated 2003).
# Tested on: not listed separately
# Assay: Oral absorption (Cmax) in rats
# Format: in vivo
# Conditions: rats; oral; sodium salt compared to the free compound
row,"Cmax, times greater than the free (non-salt) compound [times]",SMILES
1,2 to 3,"CCCCCS(=O)(=O)NC(=O)c1ccc2nc(C)n(Cc3ccc(OCC4CCCCC4)cc3Cl)c2n1.[Na] [Example 85, 3-[2-chloro-4-(cyclohexylmethyloxy)benzyl]-2-methyl-5-(1-pentanesulfonylcarbamoyl)-3H-imidazo[4,5-b]pyridine sodium salt]"

# Same assay, conditions: sodium salt compared to the free compound; demonstrated by Cmax in rats and dogs
row,oral absorption as compared to the free (non-salt) compound,SMILES
1,markedly improved,"CCCCCS(=O)(=O)NC(=O)c1ccc2nc(C)n(Cc3ccc(OCC4CCCCC4)cc3Cl)c2n1.[Na] [Example 85, 3-[2-chloro-4-(cyclohexylmethyloxy)benzyl]-2-methyl-5-(1-pentanesulfonylcarbamoyl)-3H-imidazo[4,5-b]pyridine sodium salt]"

# Tested on: not listed separately
# Assay: Oral absorption (Cmax) in dogs
# Format: in vivo
# Conditions: sodium salt compared to the free compound
row,"Cmax, times greater than the free (non-salt) compound",SMILES
1,about 16 times,"CCCCCS(=O)(=O)NC(=O)c1ccc2nc(C)n(Cc3ccc(OCC4CCCCC4)cc3Cl)c2n1.[Na] [Example 85, 3-[2-chloro-4-(cyclohexylmethyloxy)benzyl]-2-methyl-5-(1-pentanesulfonylcarbamoyl)-3H-imidazo[4,5-b]pyridine sodium salt]"

# Tested on: not given
# Assay: not given
# Conditions: not given
row,SMILES,melting point [°C]
1,"CCCCCS(=O)(=O)NC(=O)c1ccc2nc(C)n(Cc3ccc(N(C)CC4CCCCC4)cc3Cl)c2n1 [Example 53, 3-(2-chloro-4-(N-(cyclohexylmethyl)methylamino)benzyl)-2-methyl-5-(1-pentanesulfonylcarbamoyl)-3H-imidazo[4,5-b]pyridine]",169 to 170
2,"CCCCCS(=O)(=O)NC(=O)c1ccc2nc(C)n(Cc3ncc(NC(=O)OC(C)(C)C)cc3Cl)c2n1 [Example 129, 3-[(5-(N-(tert-butoxycarbonyl)amino)-3-chloropyridin-2-yl)methyl]-2-methyl-5-(1-pentanesulfonylcarbamoyl)-3H-imidazo[4,5-b]pyridine]",193 to 194
3,CCCCCS(=O)(=O)NC(=O)c1ccc2nc(C)n(Cc3ccc(-c4ccc(Cl)s4)cc3Cl)c2n1.[Na],> 250
4,"CCCCCS(=O)(=O)NC(=O)c1ccc2nc(C)n(Cc3ccc(N(C)C(=O)OCC)cc3Cl)c2n1 [Example 145, 3-(4-(N-(ethoxycarbonyl)-N-methylamino)-2-chlorobenzyl)-2-methyl-5-(1-pentanesulfonylcarbamoyl)-3H-imidazo[4,5-b]pyridine]",149 to 150
5,"CCCCCS(=O)(=O)NC(=O)c1ccc2nc(C)n(Cc3ccc(N(CC)C(=O)OC(C)(C)C)cc3Cl)c2n1 [Example 72, 3-[4-(N-(tert-butoxycarbonyl)-N-ethylamino)-2-chlorobenzyl]-2-methyl-5-(1-pentanesulfonylcarbamoyl)-3H-imidazo[4,5-b]pyridine]",131 to 132
6,"CCCCCS(=O)(=O)NC(=O)c1ccc2nc(CC)n(Cc3ccc(OCC4CCCCC4)cc3Cl)c2n1 [Example 68, 3-(2-chloro-4-(cyclohexylmethyloxy)benzyl)-2-ethyl-5-(1-pentanesulfonylcarbamoyl)-3H-imidazo[4,5-b]pyridine]",137 to 139

# The next lines start with the values.
row,melting point [°C],SMILES
1,171 to 172,"CCCCCS(=O)(=O)NC(=O)c1ccc2nc(C)n(Cc3ccc(-n4cccc4)cc3Cl)c2n1 [Example 83, 3-(2-chloro-4-(1-pyrrolyl)benzyl)-2-methyl-5-(1-pentanesulfonylcarbamoyl)-3H-imidazo[4,5-b]pyridine]"
2,165 to 166,"CCCCCS(=O)(=O)NC(=O)c1ccc2nc(C)n(Cc3ccc(OCC)cc3Cl)c2n1 [Example 8, 3-(2-chloro-4-ethoxybenzyl)-2-methyl-5-(1-pentanesulfonylcarbamoyl)-3H-imidazo[4,5-b]pyridine]"
3,145 to 146,"CCCCCOc1ccc(Cn2c(C)nc3ccc(C(=O)NS(=O)(=O)CCCC)nc32)c(Cl)c1 [Example 21, 5-(1-butanesulfonylcarbamoyl)-3-(2-chloro-4-(1-pentyloxy)benzyl)-2-methyl-3H-imidazo[4,5-b]pyridine]"
4,188 to 189,"CCCCCS(=O)(=O)NC(=O)c1ccc2nc(C)n(Cc3ccc(OC)cc3Cl)c2n1 [Example 5, 3-(2-chloro-4-methoxybenzyl)-2-methyl-5-(1-pentanesulfonylcarbamoyl)-3H-imidazo[4,5-b]pyridine]"
5,160 to 161,"CCCCCS(=O)(=O)NC(=O)c1ccc2nc(C)n(Cc3ccc(OCC4CCCC4)cc3Cl)c2n1 [Example 27, 3-(2-chloro-4-((cyclopentylmethyl)oxy)benzyl)-2-methyl-5-(1-pentanesulfonylcarbamoyl)-3H-imidazo[4,5-b]pyridine]"
6,> 250,"CCCCCS(=O)(=O)NC(=O)c1ccc2nc(C)n(Cc3ccc(OCC4CCCCC4)cc3Cl)c2n1.[Na] [Example 85, 3-[2-chloro-4-(cyclohexylmethyloxy)benzyl]-2-methyl-5-(1-pentanesulfonylcarbamoyl)-3H-imidazo[4,5-b]pyridine sodium salt]"
7,151 to 152,"CCCCS(=O)(=O)NC(=O)c1ccc2nc(C)n(Cc3ccc(OCC)cc3Cl)c2n1 [Example 9, 5-(1-butanesulfonylcarbamoyl)-3-(2-chloro-4-ethoxybenzyl)-2-methyl-3H-imidazo[4,5-b]pyridine]"
8,228 to 230,"CCCCCS(=O)(=O)NC(=O)c1ccc2nc(C)n(Cc3ncc(NC(=O)OC(C)C)cc3Cl)c2n1 [Example 135, 3-[(5-(N-(isopropoxycarbonyl)amino)-3-chloropyridin-2-yl)methyl]-2-methyl-5-(1-pentanesulfonylcarbamoyl)-3H-imidazo[4,5-b]pyridine]"

# Tested on: db/db mice
# Assay: not given
# Conditions: female db/db mice; Dose 1 mg/kg, drug mixed with diet; difference between db/db control group and +/+ mice taken as 100%
row,SMILES,Blood sugar decrease (%)
1,"CCCOc1ccc(Cn2c(C)nc3c(C)cc(C(=O)NS(=O)(=O)c4ccc(C)cc4)nc32)c(Cl)c1 [Compound A, 3-(2-Chloro-4-(1-propoxy)benzyl)-2,7-dimethyl-5-[(4-methylbenzene)sulfonylcarbamoyl]-3H-imidazo[4,5-b]pyridine]",97
